The source of these data is patent US8883782B2, “Spiro-tetracyclic ring compounds as beta-secretase modulators and methods of use” (Amgen Inc., priority 2010, dated 2014).

Like-named read-outs stand apart in the source and are kept apart here. Bounds are passed on as bounds.

In assay [1] the target is Beta Secretase enzyme (BACE) (Homo sapiens, UniProt P56817). Kind of assay: In vitro enzymatic BACE FRET (fluorescence resonance energy transfer) assay. The assay is classed as biochemical. To be noted: average IC50, enzyme assay; read-out: BACE 1 FRET assay. In outline:
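A peptide bearing a fluorophore and quencher across the cleavage site serves as substrate at 50 nM. Reactions proceed one hour in acidic acetate buffer (0.05 M, pH 4.2) containing 10% DMSO final and 100 uM genapol, then are terminated with Tris and read fluorimetrically.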

The subject of assay [2] is Aβ40 in conditioned medium of cells stably expressing Amyloid Precursor Protein (APP). Kind of assay: In vitro BACE cell-based assay (Aβ40 in conditioned medium, sandwich ELISA). To be noted: read-out: HEK cell assay. In outline:
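Conditioned medium from stably APP-expressing cells treated with compound dose series is assayed for Aβ40 by sandwich ELISA with time-resolved fluorescence detection. IC50 is calculated from percent inhibition of Aβ40 against compound concentration.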

[3] abbreviates: Homo sapiens, HEK293, average IC50, HEK cells.
Setting [4] is: Homo sapiens, HEK293, average IC50.

Chain of Beta Secretase enzyme (BACE) (P56817 46-501, species assumed): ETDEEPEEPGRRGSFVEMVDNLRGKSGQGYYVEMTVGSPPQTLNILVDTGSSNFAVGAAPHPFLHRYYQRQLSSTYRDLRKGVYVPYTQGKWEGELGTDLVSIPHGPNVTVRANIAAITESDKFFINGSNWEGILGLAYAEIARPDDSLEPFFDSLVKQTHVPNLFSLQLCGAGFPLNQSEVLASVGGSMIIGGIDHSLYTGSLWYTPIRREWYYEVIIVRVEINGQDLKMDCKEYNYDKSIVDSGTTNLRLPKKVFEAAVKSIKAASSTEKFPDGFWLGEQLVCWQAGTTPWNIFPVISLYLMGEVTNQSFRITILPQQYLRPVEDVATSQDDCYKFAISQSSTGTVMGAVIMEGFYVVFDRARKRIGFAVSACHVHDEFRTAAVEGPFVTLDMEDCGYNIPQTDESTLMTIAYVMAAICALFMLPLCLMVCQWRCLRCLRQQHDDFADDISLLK

Take `CC1(C)C[C@H](c2cnc3c(c2)[C@]2(COC(N)=N2)c2cc(-c4cccnc4F)ccc2O3)CCO1` [Example 453, (5S)-3-((4R)-2,2-dimethyltetrahydro-2H-pyran-4-yl)-7-(2-fluoro-3-pyridinyl)spiro[chromeno[2,3-b]pyridine-5,4′-[1,3]oxazol]-2′-amine]: the IC50 is 2.4 nM in assay [1] and 12.2 nM in assay [2] (setting [3]).
In the case of `CC(C)(C)C#Cc1cnc2c(c1)[C@]1(CSC(N)=N1)c1cc(-c3cncnc3)ccc1O2` [Example 629, (5S)-3-(3,3-dimethyl-1-butyn-1-yl)-7-(5-pyrimidinyl)spiro[chromeno[2,3-b]pyridine-5,4′-[1,3]thiazol]-2′-amine], the IC50 in assay [1] is 0.6 nM; in assay [2] (setting [3]), 7 nM.
On to `CN(C)c1cc2c(cn1)Oc1ccc(-c3cccnc3)cc1[C@@]21COC(N)=N1` [Example 403, (5S)-N~3~,N~3~-dimethyl-7-(3-pyridinyl)spiro[chromeno[2,3-c]pyridine-5,4′-[1,3]oxazole]-2′,3-diamine], for which the figures for the IC50 in assay [1] and in assay [2] (setting [3]) were 43 nM and 111 nM, respectively.
`COC(C)(C)COc1cnc2c(c1)[C@@]1(COC(N)=N1)c1cc(-c3cc(Cl)ccc3F)ccc1O2` [Example 318, (5R)-7-(5-chloro-2-fluorophenyl)-3-(2-methoxy-2-methylpropoxy)spiro[chromeno[2,3-b]pyridine-5,4′-[1,3]oxazol]-2′-amine]: the IC50 was 367 nM in assay [1] and 1810 nM in assay [2] (setting [4]).
As to `CC1(C)C=C(c2cnc3c(c2)[C@@]2(COC(N)=N2)c2c(ccc(-c4cncnc4)c2F)O3)CCO1` [Example 354, (5S)-3-(6,6-dimethyl-3,6-dihydro-2H-pyran-4-yl)-6-fluoro-7-(5-pyrimidinyl)spiro[chromeno[2,3-b]pyridine-5,4′-[1,3]oxazol]-2′-amine], the IC50 in assay [1] was 91.8 nM; in assay [2] (setting [4]), 342 nM.
As to `NC1=N[C@@]2(CS1)c1cc(-c3cccnc3)ccc1Oc1ncc(N3CCOCC3)cc12` [Example 602, (5S)-3-(4-morpholinyl)-7-(3-pyridinyl)spiro[chromeno[2,3-b]pyridine-5,4′-[1,3]thiazol]-2′-amine], the figures for the IC50 in assay [1] and in assay [2] (setting [3]) were 2.8 nM and 17 nM, respectively.
The like results for `N#Cc1cccc(-c2ccc3c(c2)[C@@]2(COC(N)=N2)c2cc(N4CC[C@@H](F)C4)ncc2O3)c1` [Example 425, 3-((5S)-2′-amino-3-((3R)-3-fluoro-1-pyrrolidinyl)spiro[chromeno[2,3-c]pyridine-5,4′-[1,3]oxazol]-7-yl)benzonitrile] were, in that order, 0.8 nM and 4.8 nM.
In the case of `Cn1cc(-c2cc(F)c3c(c2)[C@]2(COC(N)=N2)c2cc(-c4c(F)ccnc4F)ccc2O3)cn1` [Example 859, (4S)-7′-(2,4-difluoro-3-pyridinyl)-4′-fluoro-2′-(1-methyl-1H-pyrazol-4-yl)spiro[1,3-oxazole-4,9′-xanthen]-2-amine], the figures for the IC50 in assay [1] and in assay [2] (setting [3]) were 0.5 nM and 11 nM, respectively.
As to `CC1(C)C=C(c2cnc3c(c2)[C@]2(CSC(N)=N2)c2cc(-c4cncnc4)ccc2O3)CCO1` [Example 670, (5S)-3-(6,6-dimethyl-3,6-dihydro-2H-pyran-4-yl)-7-(5-pyrimidinyl)spiro[chromeno[2,3-b]pyridine-5,4′-[1,3]thiazol]-2′-amine], the results for the IC50 in assay [1] and in assay [2] (setting [3]) were 0.9 nM and 9 nM, respectively.
The corresponding values for `Cc1cc(-c2cc(F)c3c(c2)[C@]2(COC(N)=N2)c2cc(OCC4(C)COC4)ccc2O3)cnc1F` [Example 445, (4S)-4′-fluoro-2′-(6-fluoro-5-methyl-3-pyridinyl)-7′-((3-methyl-3-oxetanyl)methoxy)spiro[1,3-oxazole-4,9′-xanthen]-2-amine] are 41.6 nM and 188 nM.
`COC[C@H]1SC(N)=NC12c1cc(-c3cccnc3F)ccc1Oc1c(F)cc(OC)cc12` (stereo partly drawn) [Example 1092, (4S/R,5S)-4′-fluoro-7′-(2-fluoropyridin-3-yl)-2′-methoxy-5-(methoxymethyl)-5H-spiro[thiazole-4,9′-xanthen]-2-amine]: the IC50 in assay [1] amounted to 5.7 nM; in assay [2] (average IC50, HEK cells) it was 498 nM.
Take `COc1ccncc1-c1ccc2c(c1)[C@@]1(COC(N)=N1)c1cc(C3=CCOCC3)ncc1O2` [Example 653, (5S)-3-(3,6-dihydro-2H-pyran-4-yl)-7-(4-methoxy-3-pyridinyl)spiro[chromeno[2,3-c]pyridine-5,4′-[1,3]oxazol]-2′-amine]: the IC50 was 10.4 nM in assay [1] and 9 nM in assay [2] (setting [3]).
With `NC1=N[C@@]2(CO1)c1cc(-c3cncc(C4=CCOCC4)c3)ccc1Oc1cnc(C3=CCOCC3)cc12` [Example 231, (5S)-3-(3,6-dihydro-2H-pyran-4-yl)-7-(5-(3,6-dihydro-2H-pyran-4-yl)-3-pyridinyl)spiro[chromeno[2,3-c]pyridine-5,4′-[1,3]oxazol]-2′-amine], the results for the IC50 in assay [1] and in assay [2] (setting [4]) were 34 nM and 106 nM, respectively.
As for `NC1=N[C@@]2(CO1)c1cc(C#CC3CC3)ccc1Oc1ncc(N3CCC(F)(F)CC3)cc12` [Example 181, (5S)-7-(cyclopropylethynyl)-3-(4,4-difluoro-1-piperidinyl)spiro[chromeno[2,3-b]pyridine-5,4′-[1,3]oxazol]-2′-amine], the IC50 was found to be 5.7 nM in assay [1] and 27.1 nM in assay [2] (setting [4]).
In the case of `NC1=N[C@@]2(CO1)c1cc(-c3cncc(F)c3)ccc1Oc1cnc(N3CCC(F)(F)C3)cc12` [Example 413, (5S)-3-(3,3-difluoro-1-pyrrolidinyl)-7-(5-fluoro-3-pyridinyl)spiro[chromeno[2,3-c]pyridine-5,4′-[1,3]oxazol]-2′-amine], the IC50 in assay [1] was 0.8 nM; in assay [2] (setting [3]), 5.6 nM.
`CC1(C#Cc2cc3c(cn2)Oc2ccc(-c4cccc(Cl)c4)cc2[C@@]32COC(N)=N2)COC1` [Example 157, (5S)-7-(3-chlorophenyl)-3-((3-methyl-3-oxetanyl)ethynyl)spiro[chromeno[2,3-c]pyridine-5,4′-[1,3]oxazol]-2′-amine]: the IC50 worked out at 0.8 nM in assay [1] and 30.2 nM in assay [2] (setting [4]).
On to “(4S)-4′-fluoro-7′-(2-fluoro-3-pyridinyl)-2′-((2R)-tetrahydro-2H-pyran-2-yl)spiro[1,3-oxazole-4,9′-xanthen]-2-amine [Example 220]”, for which the IC50 in assay [1] is 1.6 nM; in assay [2] (average IC50), 12.8 nM.
Take `CC1(COc2cc3c(cc2F)Oc2ccc(-c4ccc(F)nc4)cc2[C@@]32COC(N)=N2)COC1` [Example 326, (4S)-3′-fluoro-7′-(6-fluoro-3-pyridinyl)-2′-((3-methyl-3-oxetanyl)methoxy)spiro[1,3-oxazole-4,9′-xanthen]-2-amine]: the IC50 in assay [1] is 19.7 nM; in assay [2] (setting [4]) it was 61.6 nM.
Turning to `NC1=N[C@@]2(CO1)c1cc(-c3cccnc3F)ccc1Oc1cc(OC(F)(F)F)c(Br)cc12` [Example 989, (4S)-2′-bromo-7′-(2-fluoro-3-pyridinyl)-3′-(trifluoromethoxy)spiro[1,3-oxazole-4,9′-xanthen]-2-amine], the IC50 is 2380 nM in assay [1] and at least 10000 nM in assay [2] (setting [4]).
For `NC1=N[C@]2(CS1)c1cc(I)ccc1Oc1ncc(Br)cc12` [Example 579, (5R)-3-bromo-7-iodospiro[chromeno[2,3-b]pyridine-5,4′-[1,3]thiazol]-2′-amine], the figures for the IC50 in assay [1] and in assay [2] (setting [3]) were 1930 nM and 3180 nM, respectively.
